# Test results: paper PMC6270359, “Cholinesterase Enzymes Inhibitors from the Leaves of Rauvolfia Reflexa and Their Molecular Docking Study” (Molecules, 2013)
# Values joined by “and” are separate entries in the source; they are usually repeats but may differ in a detail not shown here. Equal values may be shown once. Read-outs that look alike come from different tables or passages of the source.
# Columns and labels:
# [1] = target: T1, acetylcholinesterase from electric eel (AChE) (Electrophorus electricus, UniProt O42275); test: Acetylcholinesterase inhibitory assay (Ellman's microplate assay); assay type: biochemical; conditions: for IC50: Mean ± SD (n = 3)
# T1 construct: purchased Sigma Chemicals (St. Louis, MO, USA)
# Procedure: (§1) Acetylthiocholine iodide (ATCl), acetylcholinesterase from electric eel (AChE), 5,5'-dithiobis[2-nitrobenzoic acid] […] All the other reagents used were of analytical grade.
# (§2) Cholinesterase enzymes inhibitory potential of test samples was evaluated using Ellman’s microplate assay following the method described by Ahmed and Gilani with slight modifications. […] The concentration of DMSO in final reaction mixture was 1%.
# (§3) For acetylcholinesterase (AChE) inhibitory assay, 140 μL of 0.1 M sodium phosphate buffer (pH 8) was first added to a 96-wells microplate followed by 20 μL of test samples and 20 μL of 0.09 units/mL acetylcholinesterase enzyme. After 15 min of pre-incubation at 25 °C, 10 μL of 10 mM 5,5'-dithiobis (2-nitrobenzoic acid) was added into each well, followed by 10 μL of 14 mM acetylthiocholine iodide. After the initiation of enzymatic reaction, absorbance of the coloured end-product was measured for 15 min using Tecan Infinite 200 Pro Microplate Spectrophotometer (Männedorf, Switzerland) at 417 nm.
# (§4) For butyrylcholinesterase (BChE) inhibitory assay, the same procedures as described above were followed except for the use of enzyme and substrate, which were BChE from equine serum and S-butyrylthiocholine chloride, respectively. Each test was conducted in triplicate. Absorbencies of the test samples were corrected by subtracting the absorbance of their respective blank. […] Percentage inhibition was calculated using the following formula: Percentage inhibition (%) = Absorbance of control - Absorbance of test sample/Absorbance of control×100%
# [2] = target: T2, butyrylcholinesterase from equine serum (BChE) (Equus caballus, UniProt P81908); test: Butyrylcholinesterase inhibitory assay (Ellman's microplate assay); assay type: biochemical
# T2 construct: purchased Sigma Chemicals (St. Louis, MO, USA); host or cells: equine serum
# Procedure: as §1, §2, §3, §4
# [3] = chemical constituents, read-out: AChE inhibition, IC50 (converted)
# [4] = isolated chemical constituents at 10 μg/mL, initial screening
# T2 sequence (P81908 whole entry): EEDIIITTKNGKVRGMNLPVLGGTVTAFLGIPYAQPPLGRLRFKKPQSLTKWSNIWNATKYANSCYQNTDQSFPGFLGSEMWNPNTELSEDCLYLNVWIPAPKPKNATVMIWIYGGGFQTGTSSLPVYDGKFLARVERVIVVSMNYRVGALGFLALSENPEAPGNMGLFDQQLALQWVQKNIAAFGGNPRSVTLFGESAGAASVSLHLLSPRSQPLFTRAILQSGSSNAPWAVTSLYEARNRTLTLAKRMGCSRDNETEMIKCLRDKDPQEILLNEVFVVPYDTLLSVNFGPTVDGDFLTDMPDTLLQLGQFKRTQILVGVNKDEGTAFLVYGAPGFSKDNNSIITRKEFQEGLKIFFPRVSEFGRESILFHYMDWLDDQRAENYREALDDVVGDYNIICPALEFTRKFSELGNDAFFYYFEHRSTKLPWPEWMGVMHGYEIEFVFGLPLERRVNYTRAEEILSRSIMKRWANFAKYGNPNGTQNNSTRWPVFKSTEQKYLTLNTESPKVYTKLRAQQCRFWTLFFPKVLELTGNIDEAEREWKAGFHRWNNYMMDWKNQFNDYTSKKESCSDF
# T1 sequence (O42275 24-633): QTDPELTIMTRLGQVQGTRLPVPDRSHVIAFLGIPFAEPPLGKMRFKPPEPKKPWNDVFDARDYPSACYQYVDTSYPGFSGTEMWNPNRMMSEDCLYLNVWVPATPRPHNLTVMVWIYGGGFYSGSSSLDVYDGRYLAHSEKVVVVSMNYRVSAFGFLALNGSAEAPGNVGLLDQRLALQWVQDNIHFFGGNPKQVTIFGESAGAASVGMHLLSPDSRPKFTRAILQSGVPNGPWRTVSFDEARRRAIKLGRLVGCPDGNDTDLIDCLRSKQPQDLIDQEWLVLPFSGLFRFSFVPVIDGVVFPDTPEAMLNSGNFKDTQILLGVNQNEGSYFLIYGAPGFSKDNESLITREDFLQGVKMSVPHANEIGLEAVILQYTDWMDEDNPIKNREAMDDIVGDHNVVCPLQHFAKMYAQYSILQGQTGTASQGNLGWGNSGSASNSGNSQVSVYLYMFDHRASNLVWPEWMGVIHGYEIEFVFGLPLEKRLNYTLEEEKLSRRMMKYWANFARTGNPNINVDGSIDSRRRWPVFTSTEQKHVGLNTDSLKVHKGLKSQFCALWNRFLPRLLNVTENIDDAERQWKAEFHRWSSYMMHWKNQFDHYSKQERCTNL
SMILES,"Selectivity for AChE ([1]; chemical constituents, IC50(BChE)/IC50(AChE))","IC50 [1, 3]","inhibition at 10 µg/mL [1, 4] [%]","Selectivity for BChE ([2]; chemical constituents, IC50(AChE)/IC50(BChE))","IC50 ([2]; chemical constituents, Mean ± SD (n = 3), read-out: BChE inhibition, IC50 (converted)) [µM]","inhibition at 10 µg/mL [2, 4] [%]","IC50 ([1]; AChE inhibition, IC50, chemical constituents) [µM]","AChE inhibition [1, 4]","IC50 ([1]; read-out: AChE inhibition, IC50, chemical constituents) [µM]"
"COC(=O)/C=C/c1cc(OC)c(O)c(OC)c1 [Compound 2, (E)-methyl 3-(4-hydroxy-3,5-dimethoxyphenyl) acrylate]",0.39,158 µM,40.4,2.56,61.7,91.3,–,–,–
"O=C1NCCc2c1[nH]c1ccccc21 [Compound 4, 1,2,3,4-Tetrahydro-1-oxo-β-carboline]",–,83.3 µM and 83.4 µM,41.3,–,–,–,–,–,–
"COc1cc(/C=C/C(=O)O)cc(OC)c1OC [Compound 1, (E)-3-(3,4,5-Trimethoxyphenyl) acrylic acid]",–,–,–,–,–,–,60.1,much lower inhibition,60.2 ± 14.4
